Results from patent US20250179066A1, “ZWITTERIONIC ANTIBACTERIAL COMPOUNDS” (Hoffmann-La Roche Inc., priority 2022, published 2025).
Structures can show the parent of a compound that is named as a salt.

Tested on: Acinetobacter baumannii ATCC17961
Experiment: Antimicrobial susceptibility testing: 90% growth inhibitory concentration (IC90) determination
Assay type: cell-based
Conditions: 90% growth inhibitory concentration against Acinetobacter baumannii ATCC17961, Iso-Sensitest broth, OD 600 nm over 16 h; read-out: ATCC 17961 IC90
Outline: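 OD600 monitored each minute over 16 h at 35±2° C for bacteria (~5×10^5 CFU/mL final) in Iso-Sensitest medium with 10-point twofold compound series (e.g. 10-0.0195 μM final). Concentration giving 90% growth inhibition in log phase reported as IC90.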

Row | Structure (SMILES) | IC90
1 | Cn1c(-c2cn(-c3ccc(NCCN)cn3)nc2C(F)(F)F)cnc1C(=O)Nc1ccc(C(=O)N2CCN(C(=O)[C@H]3CC[N@+](CC(=O)O)(CC4CNC4)CC3)CC2)c(Cl)c1 [Example 73, cis-2-[4-[4-[4-[[5-[1-[5-(2-aminoethylamino)-2-pyridyl]-3-(trifluoromethyl)pyrazol-4-yl]-1-methyl-imidazole-2-carbonyl]amino]-2-chloro-benzoyl]piperazine-1-carbonyl]-1-(azetidin-3-ylmethyl)piperidin-1-ium-1-yl]acetic acid; formic acid; formate] | 870 nM

Same assay, conditions: Acinetobacter baumannii, ATCC17961, 16 h, 90% growth inhibitory concentration against Acinetobacter baumannii ATCC17961, Iso-Sensitest broth, OD 600 nm over 16 h; read-out: ATCC 17961 IC90

Row | Structure (SMILES) | IC90
2 | Cn1c(-c2cn(-c3ccnc(N)c3)nc2C(F)(F)F)cnc1C(=O)Nc1ccc(C(=O)N2CCN(C(=O)C3CC[N+](CC(=O)O)(CC4CNC4)CC3)CC2)c(Cl)c1 (centres unmarked) [Example 74, 2-[4-[4-[4-[[5-[1-(2-amino-4-pyridyl)-3-(trifluoromethyl)pyrazol-4-yl]-1-methyl-imidazole-2-carbonyl]amino]-2-chloro-benzoyl]piperazine-1-carbonyl]-1-(azetidin-3-ylmethyl)piperidin-1-ium-1-yl]acetic acid. 1:1 2,2,2-trifluoroacetate] | 940 nM
3 | Cn1c(-c2cn(-c3ccc(N)cn3)nc2C(F)(F)F)cnc1C(=O)Nc1ccc(C(=O)N2CCC(C(=O)N3CC[N+](CCCN)(CC(=O)O)CC3)CC2)c(Cl)c1 [Example 75, 2-[1-(3-aminopropyl)-4-[1-[4-[[5-[1-(5-amino-2-pyridyl)-3-(trifluoromethyl)pyrazol-4-yl]-1-methyl-imidazole-2-carbonyl]amino]-2-chloro-benzoyl]piperidine-4-carbonyl]piperazin-1-ium-1-yl]acetic acid. 1:1 2,2,2-trifluoroacetate] | 950 nM
4 | Cn1c(-c2cn(-c3ccc(C#N)cn3)nc2C(F)(F)F)cnc1C(=O)Nc1ccc(C(=O)N2CCN(C(=O)C3CC[N+](CC(=O)O)(CC4CNC4)CC3)CC2)c(Cl)c1 (centres unmarked) [Example 76, 2-[1-(azetidin-3-ylmethyl)-4-[4-[2-chloro-4-[[5-[1-(5-cyano-2-pyridyl)-3-(trifluoromethyl)pyrazol-4-yl]-1-methyl-imidazole-2-carbonyl]amino]benzoyl]piperazine-1-carbonyl]piperidin-1-ium-1-yl]acetic acid. 1:1 formate] | 1030 nM
5 | C[C@H]1CN(C(=O)c2ccc(NC(=O)c3ncc(-c4cn(-c5ccc(N)cn5)nc4C(F)(F)F)n3C)cc2Cl)CCN1C(=O)C1CC[N+](CC(=O)O)(CC2CNC2)CC1 (stereo partly drawn) [Example 77, 2-[4-[(2S)-4-[4-[[5-[1-(5-amino-2-pyridyl)-3-(trifluoromethyl)pyrazol-4-yl]-1-methyl-imidazole-2-carbonyl]amino]-2-chloro-benzoyl]-2-methyl-piperazine-1-carbonyl]-1-(azetidin-3-ylmethyl)piperidin-1-ium-1-yl]acetic acid. 1:1 formate] | 1100 nM
6 | CC[C@@H]1CN(C(=O)C2CC[N+](CC(=O)O)(CC3CNC3)CC2)CCN1C(=O)c1ccc(NC(=O)c2ncc(-c3cn(-c4ccc(N)cn4)nc3C(F)(F)F)n2C)cc1Cl (stereo partly drawn) [Example 78, 2-[4-[(3R)-4-[4-[[5-[1-(5-amino-2-pyridyl)-3-(trifluoromethyl)pyrazol-4-yl]-1-methyl-imidazole-2-carbonyl]amino]-2-chloro-benzoyl]-3-ethyl-piperazine-1-carbonyl]-1-(azetidin-3-ylmethyl)piperidin-1-ium-1-yl]acetic acid. 1:1 formate] | 1110 nM
7 | C[C@H]1CN(C(=O)C2CC[N+](CC(=O)O)(CC3CNC3)CC2)CCN1C(=O)c1ccc(NC(=O)c2ncc(-c3cn(-c4ccc(N)cn4)nc3C(F)(F)F)n2C)cc1Cl (stereo partly drawn) [Example 79, 2-[4-[(3S)-4-[4-[[5-[1-(5-amino-2-pyridyl)-3-(trifluoromethyl)pyrazol-4-yl]-1-methyl-imidazole-2-carbonyl]amino]-2-chloro-benzoyl]-3-methyl-piperazine-1-carbonyl]-1-(azetidin-3-ylmethyl)piperidin-1-ium-1-yl]acetic acid. 1:1 formate] | 1120 nM
8 | Cn1c(-c2cn(-c3nc4ccccc4s3)nc2C(F)(F)F)cnc1C(=O)Nc1ccc(C(=O)N2CCN(C(=O)C3CC[N+](CC(=O)O)(CC4CNC4)CC3)CC2)c(Cl)c1 (centres unmarked) [Example 80, 2-[1-(azetidin-3-ylmethyl)-4-[4-[4-[[5-[1-(1,3-benzothiazol-2-yl)-3-(trifluoromethyl)pyrazol-4-yl]-1-methyl-imidazole-2-carbonyl]amino]-2-chloro-benzoyl]piperazine-1-carbonyl]piperidin-1-ium-1-yl]acetic acid. 1:1 formate] | 1200 nM
9 | Cn1c(-c2cn(-c3ccc(N)cn3)nc2C(F)(F)F)cnc1C(=O)Nc1ccc(C(=O)N2CCN(C(=O)[C@@H](N)CCCCNCC(=O)O)CC2)c(Cl)c1 [Example 81, 2-[[(5S)-amino-6-[4-[4-[[5-[1-(5-amino-2-pyridyl)-3-(trifluoromethyl)pyrazol-4-yl]-1-methyl-imidazole-2-carbonyl]amino]-2-chloro-benzoyl]piperazino]-6-keto-hexyl]amino]acetic acid. 1:1 2,2,2-trifluoroacetic acid] | 1210 nM
10 | COc1ccc(-n2cc(-c3cnc(C(=O)Nc4ccc(C(=O)N5CCN(C(=O)C6CC[N+](CC(=O)O)(CC7CNC7)CC6)CC5)c(Cl)c4)n3C)c(C(F)(F)F)n2)cn1 (centres unmarked) [Example 82, 2-[1-(azetidin-3-ylmethyl)-4-[4-[2-chloro-4-[[5-[1-(6-methoxy-3-pyridyl)-3-(trifluoromethyl)pyrazol-4-yl]-1-methyl-imidazole-2-carbonyl]amino]benzoyl]piperazine-1-carbonyl]piperidin-1-ium-1-yl]acetic acid. 1:1 2,2,2-trifluoroacetate] | 1220 nM
11 | Cn1c(-c2cn(-c3ccc(N)cn3)nc2C(F)(F)F)cnc1C(=O)Nc1ccc(C(=O)N2CCN(C(=O)C[C@H](N)C(=O)O)CC2)c(Cl)c1 [Example 83, (2S)-2-amino-4-[4-[4-[[5-[1-(5-amino-2-pyridyl)-3-(trifluoromethyl)pyrazol-4-yl]-1-methyl-imidazole-2-carbonyl]amino]-2-chloro-benzoyl]piperazino]-4-keto-butyric acid. 1:1 2,2,2-trifluoroacetic acid] | 1240 nM
12 | CN(C)Cc1ccc(-n2cc(-c3cnc(C(=O)Nc4ccc(C(=O)N5CCN(C(=O)C6CC[N+](CC(=O)O)(CC7CNC7)CC6)CC5)c(Cl)c4)n3C)c(C(F)(F)F)n2)nc1 (centres unmarked) [Example 84, 2-[1-(azetidin-3-ylmethyl)-4-[4-[2-chloro-4-[[5-[1-[5-[(dimethylamino)methyl]-2-pyridyl]-3-(trifluoromethyl)pyrazol-4-yl]-1-methyl-imidazole-2-carbonyl]amino]benzoyl]piperazine-1-carbonyl]piperidin-1-ium-1-yl]acetic acid. 1:1 formic acid. 1:1 formate] | 1280 nM
13 | Cn1c(-c2cn(-c3ccc(N)cn3)nc2C(F)(F)F)cnc1C(=O)Nc1ccc(C(=O)N2CCN(C(=O)[C@H](N)CC(=O)O)CC2)c(Cl)c1 [Example 85, (3R)-3-amino-4-[4-[4-[[5-[1-(5-amino-2-pyridyl)-3-(trifluoromethyl)pyrazol-4-yl]-1-methyl-imidazole-2-carbonyl]amino]-2-chloro-benzoyl]piperazino]-4-keto-butyric acid. 1:1 2,2,2-trifluoroacetic acid] | 1360 nM
14 | Cn1c(-c2cn(-c3ccc(N)cn3)nc2C(F)(F)F)cnc1C(=O)Nc1ccc(C(=O)N2CCN(C(=O)C3CC[N+](CC(=O)O)(CC4CNC4)CC3)C3(CC3)C2)c(Cl)c1 (centres unmarked) [Example 86, 2-[4-[7-[4-[[5-[1-(5-amino-2-pyridyl)-3-(trifluoromethyl)pyrazol-4-yl]-1-methyl-imidazole-2-carbonyl]amino]-2-chloro-benzoyl]-4,7-diazaspiro[2.5]octane-4-carbonyl]-1-(azetidin-3-ylmethyl)piperidin-1-ium-1-yl]acetic acid. 1:1 formate] | 1370 nM
15 | Cn1c(-c2cn(-c3ccc(N)cn3)nc2C(F)(F)F)cnc1C(=O)Nc1ccc(C(=O)N2CCC(C(=O)N3CC[N+](CC(=O)O)(CC4CNC4)CC3)CC2)c(Cl)c1 [Example 87, 2-[4-[1-[4-[[5-[1-(5-amino-2-pyridyl)-3-(trifluoromethyl)pyrazol-4-yl]-1-methyl-imidazole-2-carbonyl]amino]-2-chloro-benzoyl]piperidine-4-carbonyl]-1-(azetidin-3-ylmethyl)piperazin-1-ium-1-yl]acetic acid. 1:1 2,2,2-trifluoroacetate] | 1410 nM
16 | CNc1cc(-n2cc(-c3cnc(C(=O)Nc4ccc(C(=O)N5CCN(C(=O)C6CC[N+](CC(=O)O)(CC7CNC7)CC6)CC5)c(Cl)c4)n3C)c(C(F)(F)F)n2)ccn1 (centres unmarked) [Example 88, 2-[1-(azetidin-3-ylmethyl)-4-[4-[2-chloro-4-[[1-methyl-5-[1-[2-(methylamino)-4-pyridyl]-3-(trifluoromethyl)pyrazol-4-yl]imidazole-2-carbonyl]amino]benzoyl]piperazine-1-carbonyl]piperidin-1-ium-1-yl]acetic acid. 1:1 2,2,2-trifluoroacetate] | 1410 nM
17 | Cn1c(-c2cn(-c3ccc(N)cn3)nc2C(F)(F)F)cnc1C(=O)Nc1ccc(C(=O)N2C3CCC2CN(C(=O)C2CC[N+](CC(=O)O)(CC4CNC4)CC2)C3)c(Cl)c1 (centres unmarked) [Example 89, 2-[4-[8-[4-[[5-[1-(5-amino-2-pyridyl)-3-(trifluoromethyl)pyrazol-4-yl]-1-methyl-imidazole-2-carbonyl]amino]-2-chloro-benzoyl]-3,8-diazabicyclo[3.2.1]octane-3-carbonyl]-1-(azetidin-3-ylmethyl)piperidin-1-ium-1-yl]acetic acid. 1:1 formate] | 1490 nM
